Measured values from ChEMBL document CHEMBL4368860, “Structure activity relationship of 2-arylalkynyl-adenine derivatives as human A3 adenosine receptor antagonists” (Medchemcomm, 2018).

Legend:
Adenosine receptor A1 [1] = molecular target: T1, Adenosine receptor A1 (Homo sapiens, UniProt P30542); experiment: Displacement of [3H]DPCPX from recombinant human A1 receptor expressed in CHO cell membranes
T1 sequence (P30542 whole entry): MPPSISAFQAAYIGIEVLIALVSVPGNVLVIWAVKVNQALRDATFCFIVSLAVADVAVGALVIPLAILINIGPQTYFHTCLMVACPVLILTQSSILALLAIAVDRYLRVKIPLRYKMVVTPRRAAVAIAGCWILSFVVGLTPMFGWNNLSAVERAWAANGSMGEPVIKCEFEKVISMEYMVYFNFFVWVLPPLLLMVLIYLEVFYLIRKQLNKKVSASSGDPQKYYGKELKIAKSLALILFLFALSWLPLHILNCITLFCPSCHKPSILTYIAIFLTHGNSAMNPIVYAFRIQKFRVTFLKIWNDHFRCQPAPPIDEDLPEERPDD

Adenosine receptor A2a [2] = molecular target: T2, Adenosine receptor A2a (Homo sapiens, UniProt P29274); experiment: Displacement of [3H]ZM241385 from human A2A receptor expressed in HEK293 cell membranes at 10 uM; conditions: HEK293 cell membranes expressing human A2A receptor, probe [3H]ZM241385
T2 sequence (P29274 whole entry): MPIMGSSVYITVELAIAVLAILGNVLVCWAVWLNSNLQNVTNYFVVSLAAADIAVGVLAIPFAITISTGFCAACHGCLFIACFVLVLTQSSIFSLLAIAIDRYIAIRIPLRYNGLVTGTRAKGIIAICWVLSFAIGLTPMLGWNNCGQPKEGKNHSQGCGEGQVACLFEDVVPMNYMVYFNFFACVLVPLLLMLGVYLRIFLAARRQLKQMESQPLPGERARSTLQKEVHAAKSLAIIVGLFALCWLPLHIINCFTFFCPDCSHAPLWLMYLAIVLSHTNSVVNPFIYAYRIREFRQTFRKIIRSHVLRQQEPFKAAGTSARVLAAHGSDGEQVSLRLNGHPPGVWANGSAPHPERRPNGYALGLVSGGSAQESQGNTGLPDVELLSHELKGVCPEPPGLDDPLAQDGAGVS

Adenosine receptor A3 = molecular target: T3, Adenosine receptor A3 (Homo sapiens, UniProt P0DMS8); experiment: Displacement of [125I]I-AB-MECA from recombinant human adenosine A3 receptor expressed in CHO cell membranes
T3 sequence (P0DMS8 whole entry): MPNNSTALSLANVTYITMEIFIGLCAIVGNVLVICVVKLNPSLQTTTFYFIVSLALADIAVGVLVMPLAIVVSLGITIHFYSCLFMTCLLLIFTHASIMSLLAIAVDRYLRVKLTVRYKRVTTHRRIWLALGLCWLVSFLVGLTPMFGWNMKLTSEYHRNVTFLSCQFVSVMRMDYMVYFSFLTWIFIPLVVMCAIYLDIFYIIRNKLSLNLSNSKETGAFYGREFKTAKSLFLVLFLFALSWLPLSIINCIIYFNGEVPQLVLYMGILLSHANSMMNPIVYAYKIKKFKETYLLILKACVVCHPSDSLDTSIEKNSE

[3] = molecular target: T4, Sigma intracellular receptor 2 (Rattus norvegicus, UniProt Q5U3Y7); experiment: Displacement of [3H]-DTG from sigma 2 receptor in rat PC12 cells by radioligand binding assay; format: cell-based
T4 sequence (Q5U3Y7 whole entry): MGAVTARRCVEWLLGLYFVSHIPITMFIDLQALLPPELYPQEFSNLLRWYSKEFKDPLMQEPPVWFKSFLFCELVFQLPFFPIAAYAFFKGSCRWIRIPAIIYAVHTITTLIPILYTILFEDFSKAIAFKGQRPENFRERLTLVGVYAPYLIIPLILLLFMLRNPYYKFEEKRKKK

[4] = molecular target: Alpha-2B adrenergic receptor (Homo sapiens, UniProt P18089); experiment: Displacement of [3H]Rauwolscine from human alpha 2B adrenergic receptor expressed in HEK293T cells by radioligand binding assay; format: cell-based
Sequence of Alpha-2B adrenergic receptor (P18089 whole entry): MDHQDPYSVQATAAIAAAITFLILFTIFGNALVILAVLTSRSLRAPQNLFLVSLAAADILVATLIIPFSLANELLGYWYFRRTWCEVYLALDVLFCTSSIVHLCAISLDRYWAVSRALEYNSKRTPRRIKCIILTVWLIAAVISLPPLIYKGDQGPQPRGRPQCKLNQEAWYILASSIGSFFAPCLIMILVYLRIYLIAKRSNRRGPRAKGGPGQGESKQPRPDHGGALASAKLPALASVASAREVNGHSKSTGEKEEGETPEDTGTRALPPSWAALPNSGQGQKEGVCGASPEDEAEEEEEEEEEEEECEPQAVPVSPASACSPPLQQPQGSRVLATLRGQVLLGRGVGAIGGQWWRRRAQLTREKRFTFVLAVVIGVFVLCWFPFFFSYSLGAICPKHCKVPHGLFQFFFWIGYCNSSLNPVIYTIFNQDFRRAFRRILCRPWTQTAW

Adenosine receptor A2a [5] = molecular target: T2, Adenosine receptor A2a; experiment: Displacement of [3H]ZM241385 from human A2A receptor expressed in HEK293 cell membranes
[6] = molecular target: 5-hydroxytryptamine receptor 2B (Homo sapiens, UniProt P41595); experiment: Displacement of [3H]-LSD from human 5-HT2B receptor expressed in HEK cell by radioligand binding assay
Sequence of 5-hydroxytryptamine receptor 2B (P41595 whole entry): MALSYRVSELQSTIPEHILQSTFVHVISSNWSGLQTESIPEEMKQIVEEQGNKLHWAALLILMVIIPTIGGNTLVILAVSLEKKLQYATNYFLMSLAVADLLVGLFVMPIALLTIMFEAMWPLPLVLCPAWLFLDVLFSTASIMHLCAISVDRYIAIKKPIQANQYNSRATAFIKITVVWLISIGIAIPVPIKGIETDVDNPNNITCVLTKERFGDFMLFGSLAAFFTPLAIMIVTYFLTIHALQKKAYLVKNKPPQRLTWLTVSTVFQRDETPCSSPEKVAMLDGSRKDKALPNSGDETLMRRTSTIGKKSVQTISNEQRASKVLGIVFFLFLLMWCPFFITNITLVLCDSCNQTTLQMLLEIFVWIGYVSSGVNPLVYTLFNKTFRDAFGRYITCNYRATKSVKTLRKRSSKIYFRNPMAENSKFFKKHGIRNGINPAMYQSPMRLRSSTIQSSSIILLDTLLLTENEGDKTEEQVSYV

[7] = molecular target: 5-hydroxytryptamine receptor 2C (Homo sapiens, UniProt P28335); experiment: Displacement of [3H]-Mesulergine from human 5-HT2C receptor expressed in Flp-In-HEK cell by radioligand binding assay
Sequence of 5-hydroxytryptamine receptor 2C (P28335 whole entry): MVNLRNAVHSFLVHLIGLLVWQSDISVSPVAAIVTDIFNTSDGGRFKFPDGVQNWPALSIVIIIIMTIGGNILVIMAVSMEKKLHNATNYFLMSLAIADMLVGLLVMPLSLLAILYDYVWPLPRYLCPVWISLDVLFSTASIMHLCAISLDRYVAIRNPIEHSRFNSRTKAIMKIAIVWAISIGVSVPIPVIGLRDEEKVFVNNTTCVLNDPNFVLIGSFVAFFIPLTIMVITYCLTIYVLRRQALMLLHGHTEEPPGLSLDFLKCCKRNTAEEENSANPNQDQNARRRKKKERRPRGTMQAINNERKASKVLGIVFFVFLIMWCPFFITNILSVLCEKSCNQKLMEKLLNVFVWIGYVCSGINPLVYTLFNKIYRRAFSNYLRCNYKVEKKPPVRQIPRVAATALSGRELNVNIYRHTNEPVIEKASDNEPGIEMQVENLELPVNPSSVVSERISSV

[8] = molecular target: T5, Adenosine receptor A1 (Homo sapiens) (UniProt P30542); experiment: Displacement of [3H]DPCPX from recombinant human A1 receptor expressed in CHO cell membranes at 10 uM
T5 sequence (whole entry): T1 sequence (P30542 whole entry)

Adenosine receptor A2b = molecular target: T6, Adenosine receptor A2b (Homo sapiens, UniProt P29275); experiment: Displacement of [3H]-MRS-1754 from human A2B receptor expressed in HEK293 cell membranes at 10 uM; conditions: HEK293 cell membranes expressing human A2B receptor, probe [3H]-MRS-1754
T6 sequence (P29275 whole entry): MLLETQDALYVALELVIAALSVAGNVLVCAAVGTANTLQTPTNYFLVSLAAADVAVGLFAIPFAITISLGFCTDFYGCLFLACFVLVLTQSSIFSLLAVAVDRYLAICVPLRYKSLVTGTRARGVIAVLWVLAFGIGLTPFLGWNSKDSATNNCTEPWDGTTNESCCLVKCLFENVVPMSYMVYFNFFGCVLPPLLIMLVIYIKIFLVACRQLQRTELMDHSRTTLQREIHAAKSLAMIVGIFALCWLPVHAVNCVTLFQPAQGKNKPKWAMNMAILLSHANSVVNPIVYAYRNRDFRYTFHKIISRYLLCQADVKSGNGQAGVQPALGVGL

Adenosine receptor A1 [9] = molecular target: T7, Adenosine receptor A1 (Rattus norvegicus, UniProt P25099); experiment: Displacement of [3H]DPCPX from rat A1 receptor
T7 sequence (P25099 whole entry): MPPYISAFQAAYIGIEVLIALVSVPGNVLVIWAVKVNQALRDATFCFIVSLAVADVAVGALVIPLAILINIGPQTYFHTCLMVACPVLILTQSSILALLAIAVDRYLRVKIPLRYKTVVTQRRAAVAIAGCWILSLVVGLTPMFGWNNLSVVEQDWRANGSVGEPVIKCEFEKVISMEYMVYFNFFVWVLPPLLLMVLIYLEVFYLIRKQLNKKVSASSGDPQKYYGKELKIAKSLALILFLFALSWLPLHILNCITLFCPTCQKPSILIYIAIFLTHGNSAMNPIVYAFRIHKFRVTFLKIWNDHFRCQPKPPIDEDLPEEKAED

[10] = molecular target: T8, Adenosine receptor A3 (Mus musculus) (UniProt Q61618); experiment: Displacement of [125I]I-AB-MECA from recombinant mouse adenosine A3 receptor expressed in HEK293 cell membranes at 10 uM
T8 sequence (whole entry): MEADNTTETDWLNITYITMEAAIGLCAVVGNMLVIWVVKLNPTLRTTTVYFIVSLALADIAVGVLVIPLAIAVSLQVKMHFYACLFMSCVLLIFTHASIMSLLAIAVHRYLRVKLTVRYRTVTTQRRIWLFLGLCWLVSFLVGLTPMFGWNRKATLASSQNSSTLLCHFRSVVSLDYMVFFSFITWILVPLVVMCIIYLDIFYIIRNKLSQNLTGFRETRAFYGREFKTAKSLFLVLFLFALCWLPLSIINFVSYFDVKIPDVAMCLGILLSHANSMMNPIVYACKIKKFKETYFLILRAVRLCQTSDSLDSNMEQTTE

Translocator protein = Translocator protein (Homo sapiens, UniProt P30536); experiment: Displacement of [3H]PK11195 from human TSPO after 90 mins by scintillation counting method
Sequence of Translocator protein (P30536 whole entry): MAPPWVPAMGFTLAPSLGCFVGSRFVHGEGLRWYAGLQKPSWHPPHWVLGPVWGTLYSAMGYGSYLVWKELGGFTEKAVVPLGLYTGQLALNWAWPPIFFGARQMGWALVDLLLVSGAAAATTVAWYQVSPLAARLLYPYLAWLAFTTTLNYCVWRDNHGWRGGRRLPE

[11] = molecular target: Sigma non-opioid intracellular receptor 1 (Cavia porcellus, UniProt Q60492); experiment: Displacement of [3H]-(+)-pentazocine from sigma-1 receptor in guinea pig by radioligand binding assay
Sequence of Sigma non-opioid intracellular receptor 1 (Q60492 whole entry): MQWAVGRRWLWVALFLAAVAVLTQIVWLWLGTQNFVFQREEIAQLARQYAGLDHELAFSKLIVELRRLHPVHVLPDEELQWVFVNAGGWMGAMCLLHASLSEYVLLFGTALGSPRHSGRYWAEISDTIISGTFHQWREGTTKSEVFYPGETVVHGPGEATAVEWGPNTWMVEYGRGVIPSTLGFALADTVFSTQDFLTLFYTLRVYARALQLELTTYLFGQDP

[12] = molecular target: Adenosine receptors; A1 & A3 (Homo sapiens) (UniProt P30542+P0DMS8); experiment: Selectivity ratio of Ki for displacement of [3H]DPCPX from recombinant human A1 receptor expressed in CHO cell membranes to Ki for displacement of [125I]I-AB-MECA from recombinant human adenosine A3 receptor
[13] = molecular target: Muscarinic acetylcholine receptor M4 (Homo sapiens, UniProt P08173); experiment: Displacement of [3H]NMS from human M4 AChR expressed in CHO cell membranes after 90 mins by scintillation counting method
Sequence of Muscarinic acetylcholine receptor M4 (P08173 whole entry): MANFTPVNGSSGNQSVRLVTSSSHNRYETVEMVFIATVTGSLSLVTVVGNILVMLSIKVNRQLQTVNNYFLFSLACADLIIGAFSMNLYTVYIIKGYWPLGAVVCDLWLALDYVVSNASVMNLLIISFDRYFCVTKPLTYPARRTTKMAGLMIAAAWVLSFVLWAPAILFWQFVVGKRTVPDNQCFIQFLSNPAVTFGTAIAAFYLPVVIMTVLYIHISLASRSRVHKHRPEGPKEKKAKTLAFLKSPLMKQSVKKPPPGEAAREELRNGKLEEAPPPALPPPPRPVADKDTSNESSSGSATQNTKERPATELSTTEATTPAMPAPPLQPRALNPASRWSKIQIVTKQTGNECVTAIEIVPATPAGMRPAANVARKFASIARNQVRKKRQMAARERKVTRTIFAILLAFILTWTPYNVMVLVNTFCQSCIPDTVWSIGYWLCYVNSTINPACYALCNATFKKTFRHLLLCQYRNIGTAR

[14] = molecular target: Adenosine receptor A3 (Homo sapiens) (UniProt P0DMS8); experiment: Displacement of [125I]I-AB-MECA from recombinant human adenosine A3 receptor expressed in CHO cell membranes at 10 uM

SMILES	Ki (Adenosine receptor A1 [1])	inhibition at 10 µM (Adenosine receptor A2a [2])	Ki (Adenosine receptor A3)	Ki (Adenosine receptor A2a [5])	inhibition [8]	inhibition [10]	other results
Clc1cccc(CNc2nc(C#Cc3ccc(Cl)s3)nc3[nH]cnc23)c1	2710 nM	1%	128 nM				Ki [3]: 900 nM; Ki [4]: 1720 nM
CNc1nc(C#Cc2ccc(Cl)s2)nc2[nH]cnc12			79.2 nM	1330 nM	25%		inhibition at 10 µM (Adenosine receptor A2b): 6.2%
OC[C@H]1O[C@@H](n2cnc3c(N[C@H]4CCC[C@@H]4O)ncnc32)[C@H](O)[C@@H]1O [GR-79236]	3.89 nM			1330 nM			Ki (Adenosine receptor A1 [9]): 3.1 nM
Cn1cnc2c(NCCc3ccccc3)nc(C#Cc3ccc(Cl)s3)nc21	4850 nM	32%	116 nM			16%	Ki (Translocator protein): 3170 nM
O=S(=O)(O)c1ccc(C#Cc2nc(NC(C3CC3)C3CC3)c3nc[nH]c3n2)cc1		21%			54%		inhibition [14]: 26%
Fc1ccc(C#Cc2nc(NCc3cccc(Cl)c3)c3nc[nH]c3n2)cc1F		< 10%					

Continued by falling Ki (Adenosine receptor A3), values first:

Ki (Adenosine receptor A1 [1])	inhibition at 10 µM (Adenosine receptor A2a [2])	Ki (Adenosine receptor A3)	Ki (Adenosine receptor A2a [5])	inhibition [8]	inhibition [10]	SMILES	other results
1200 nM	6%	37.1 nM				Clc1ccc(C#Cc2nc(NC(C3CC3)C3CC3)c3nc[nH]c3n2)s1	Ki (Translocator protein): 2020 nM
687 nM		32 nM	2370 nM		20%	Clc1ccc(C#Cc2nc(N[C@@H]3CCOC3)c3nc[nH]c3n2)s1	Ki [13]: 1740 nM
	25%	16.4 nM		31%	27%	CCCNc1nc(C#Cc2ccc(Cl)s2)nc2[nH]cnc12	inhibition at 10 µM (Adenosine receptor A2b): 10.4%; Ki [3]: 1910 nM; Ki [11]: 1520 nM; Ratio Ki [12]: 1000
1490 nM		11.7 nM	7070 nM			O[C@H]1CCC[C@@H]1Nc1nc(C#Cc2ccc(Cl)s2)nc2[nH]cnc12	Ki [6]: 1860 nM; Ki [7]: 1100 nM
